T1: Pib2 442–625 (Saccharomyces cerevisiae, UniProt P53191)
T1 construct: FYVE domain fragment, start of FYVE domain to beginning of tail motif, residues 442-625; purified; predominantly monomeric by SEC-MALS
T1 sequence (P53191 442-625): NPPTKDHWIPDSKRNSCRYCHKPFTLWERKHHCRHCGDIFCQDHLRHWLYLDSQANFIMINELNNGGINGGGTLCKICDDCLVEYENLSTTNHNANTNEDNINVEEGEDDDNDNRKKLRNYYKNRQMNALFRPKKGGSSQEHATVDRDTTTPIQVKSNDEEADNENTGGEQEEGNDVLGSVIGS

T2: Pib2 419–625 (Saccharomyces cerevisiae, UniProt P53191)
T2 construct: FYVE domain fragment starting 23 residues before the FYVE core, residues 419-625; purified; predominantly monomeric by SEC-MALS
T2 sequence (P53191 419-625): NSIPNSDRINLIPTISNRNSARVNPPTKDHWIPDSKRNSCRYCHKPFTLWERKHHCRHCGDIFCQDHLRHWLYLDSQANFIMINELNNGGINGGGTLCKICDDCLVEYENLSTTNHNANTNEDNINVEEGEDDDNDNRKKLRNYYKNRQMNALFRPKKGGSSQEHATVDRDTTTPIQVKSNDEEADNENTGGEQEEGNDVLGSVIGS

T3: EEA1 1287–1411 (Homo sapiens, UniProt Q15075)
T3 construct: purified; largely dimeric by SEC-MALS
T3 sequence (Q15075 1287-1411): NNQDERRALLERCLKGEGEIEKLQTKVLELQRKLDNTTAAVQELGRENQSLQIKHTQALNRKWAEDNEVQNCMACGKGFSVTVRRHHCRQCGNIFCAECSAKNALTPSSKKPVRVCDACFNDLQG

T4: EEA1 1347–1411 (Homo sapiens, UniProt Q15075)
T4 construct: purified; largely monomeric by SEC-MALS
T4 sequence (Q15075 1347-1411): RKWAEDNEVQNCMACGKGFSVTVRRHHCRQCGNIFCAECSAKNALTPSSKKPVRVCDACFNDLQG


Legend:
Pib2 442–625 = molecular target: T1, Pib2 442–625; experiment: ITC; assay type: binding
Pib2 419–625 = molecular target: T2, Pib2 419–625; experiment: ITC; assay type: binding
EEA1 1287–1411 = molecular target: T3, EEA1 1287–1411; experiment: ITC; assay type: binding
EEA1 1347–1411 = molecular target: T4, EEA1 1347–1411; experiment: ITC; assay type: binding
[1] = molecular target: the molecule itself; experiment: SEC-MALS; Superdex 75 10/300 in 20 mM Tris-HCl pH 7.4, 150 mM NaCl, 1.93 mM β-mercaptoethanol, room temperature; 500 µl of each protein loaded at 50 or 100 µM as indicated; detectors at 25°C

| Kd (Pib2 442–625) [µM] | Kd (Pib2 419–625) [µM] | Kd (EEA1 1287–1411) [µM] | Kd (EEA1 1347–1411) [µM] | Molecule | stoichiometry N [1] |
| --- | --- | --- | --- | --- | --- |
| 736 | – | – | – | CCCC(=O)OC[C@H](COP(=O)(O)O[C@@H]1[C@H](O)[C@H](OP(=O)(O)O)[C@@H](O)[C@H](O)[C@H]1O)OC(=O)CCC [PI3P diC4] | – |
| 212 | > 290 | ~95.8 | > 300 | O=P(O)(O)O[C@@H]1[C@H](O)[C@H](OP(=O)(O)O)[C@@H](O)[C@H](O)[C@H]1O [inositol 1,3-bisphosphate] | – |
| – | – | – | – | EEA1 1287–1411 (domain or fragment, UniProt Q15075 1287-1411, looked up, also called longer EEA1 FYVE construct; source: purified) NNQDERRALLERCLKGEGEIEKLQTKVLELQRKLDNTTAAVQELGRENQSLQIKHTQALNRKWAEDNEVQNCMACGKGFSVTVRRHHCRQCGNIFCAECSAKNALTPSSKKPVRVCDACFNDLQG | 2 |
